Measurements from ChEMBL document CHEMBL1909046, “DrugMatrix in vitro pharmacology data”.

Experiments:
Adenosine receptor A1 = target: T1, Adenosine receptor A1 (Homo sapiens, UniProt P30542); assay type: cell membranes, CHO, Membrane; conditions: cho;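 also: radioligand binding assay at the adenosine A1 receptor, with DPCPX serving as the labelled ligand; in other assays of this panel Not Active means under 50% inhibition at 10 µM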
T1 sequence (P30542 whole entry): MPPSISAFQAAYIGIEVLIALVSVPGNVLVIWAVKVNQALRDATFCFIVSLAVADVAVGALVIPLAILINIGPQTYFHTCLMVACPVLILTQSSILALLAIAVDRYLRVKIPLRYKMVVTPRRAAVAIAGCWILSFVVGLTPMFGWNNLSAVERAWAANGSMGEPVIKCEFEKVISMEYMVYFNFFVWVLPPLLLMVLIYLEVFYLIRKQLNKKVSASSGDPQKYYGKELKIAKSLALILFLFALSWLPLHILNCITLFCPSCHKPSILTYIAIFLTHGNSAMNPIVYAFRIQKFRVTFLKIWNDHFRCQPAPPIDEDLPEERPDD

[1] = target: Protein phosphatase 3 catalytic subunit alpha (Homo sapiens, UniProt Q08209); set-up: species or system Escherichia coli;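 also: inhibition of calcineurin (PP2B) enzyme activity, measured with DiFMUP as the substrate; in other assays of this panel Not Active means under 50% inhibition at 10 µM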
[2] = DRUGMATRIX: Glutamate, NMDA, Phencyclidine radioligand binding (ligand: [3H] TCP); assay type: cell membranes, Rattus norvegicus, Wistar, Cerebral cortex, Membrane; conditions: Not Active = under 50% inhibition at 10 µM
[3] = target: T2, Angiotensin-converting enzyme (Oryctolagus cuniculus, UniProt P12822); assay type: tissue-based, Lung;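 also: enzymatic inhibition of angiotensin-converting enzyme measured with FAPGG as the substrate; in other assays of this panel Not Active means under 50% inhibition at 10 µM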
T2 sequence (P12822 whole entry): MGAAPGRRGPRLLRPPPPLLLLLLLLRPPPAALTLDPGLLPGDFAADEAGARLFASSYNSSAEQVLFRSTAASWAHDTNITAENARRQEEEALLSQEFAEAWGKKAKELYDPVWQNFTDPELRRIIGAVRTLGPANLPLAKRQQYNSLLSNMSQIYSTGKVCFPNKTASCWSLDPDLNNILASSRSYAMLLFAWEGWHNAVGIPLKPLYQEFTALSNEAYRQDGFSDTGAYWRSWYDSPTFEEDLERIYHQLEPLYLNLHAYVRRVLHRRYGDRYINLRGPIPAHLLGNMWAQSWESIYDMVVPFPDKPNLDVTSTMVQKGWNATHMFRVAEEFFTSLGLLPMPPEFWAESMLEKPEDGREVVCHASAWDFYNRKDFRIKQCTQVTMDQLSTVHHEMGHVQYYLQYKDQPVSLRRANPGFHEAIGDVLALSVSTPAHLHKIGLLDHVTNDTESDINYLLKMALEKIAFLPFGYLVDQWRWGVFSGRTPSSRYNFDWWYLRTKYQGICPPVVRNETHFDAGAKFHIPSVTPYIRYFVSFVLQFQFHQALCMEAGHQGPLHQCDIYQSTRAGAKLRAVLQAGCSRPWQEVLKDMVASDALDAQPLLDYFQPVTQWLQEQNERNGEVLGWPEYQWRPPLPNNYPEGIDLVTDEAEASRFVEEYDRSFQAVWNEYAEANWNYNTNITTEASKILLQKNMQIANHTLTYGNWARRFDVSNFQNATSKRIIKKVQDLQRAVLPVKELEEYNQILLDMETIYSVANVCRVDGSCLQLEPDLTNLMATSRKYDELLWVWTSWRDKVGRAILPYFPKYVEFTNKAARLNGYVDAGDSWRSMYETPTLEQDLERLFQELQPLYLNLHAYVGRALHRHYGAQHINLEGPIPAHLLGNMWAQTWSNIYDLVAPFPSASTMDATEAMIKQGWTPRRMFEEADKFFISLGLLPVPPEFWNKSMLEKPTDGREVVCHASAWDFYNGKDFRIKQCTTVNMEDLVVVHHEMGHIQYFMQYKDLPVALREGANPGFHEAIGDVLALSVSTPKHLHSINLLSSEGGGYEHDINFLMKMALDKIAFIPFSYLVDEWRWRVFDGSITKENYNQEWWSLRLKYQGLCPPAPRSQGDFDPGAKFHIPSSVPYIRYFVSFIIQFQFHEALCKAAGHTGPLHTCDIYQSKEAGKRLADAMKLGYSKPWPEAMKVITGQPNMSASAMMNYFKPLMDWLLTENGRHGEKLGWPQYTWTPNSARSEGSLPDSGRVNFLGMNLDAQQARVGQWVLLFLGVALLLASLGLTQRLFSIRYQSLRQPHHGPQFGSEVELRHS

[4] = target: T3, Alpha-1D adrenergic receptor (Homo sapiens, UniProt P25100); assay type: cell membranes, HEK293, Membrane; conditions: hek293; also: in other assays of this panel Not Active means under 50% inhibition at 10 µM
T3 sequence (P25100 whole entry): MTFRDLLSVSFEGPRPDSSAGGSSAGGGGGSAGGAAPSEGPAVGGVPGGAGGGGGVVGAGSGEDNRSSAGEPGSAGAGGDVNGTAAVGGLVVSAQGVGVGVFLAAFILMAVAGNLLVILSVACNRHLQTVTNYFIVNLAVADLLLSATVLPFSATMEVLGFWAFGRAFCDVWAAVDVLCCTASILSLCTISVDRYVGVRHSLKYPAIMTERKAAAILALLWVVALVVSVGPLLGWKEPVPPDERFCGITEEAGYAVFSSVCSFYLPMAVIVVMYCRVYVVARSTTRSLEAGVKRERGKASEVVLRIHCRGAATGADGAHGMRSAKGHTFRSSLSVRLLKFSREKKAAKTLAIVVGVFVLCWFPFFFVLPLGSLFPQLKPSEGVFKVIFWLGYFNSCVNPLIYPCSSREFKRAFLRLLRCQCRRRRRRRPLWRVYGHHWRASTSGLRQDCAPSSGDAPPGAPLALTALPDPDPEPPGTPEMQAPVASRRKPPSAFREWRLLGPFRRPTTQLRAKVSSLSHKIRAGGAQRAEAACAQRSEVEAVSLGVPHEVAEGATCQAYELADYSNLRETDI

[5] = DRUGMATRIX: Platelet-Derived Growth Factor (PDGF) radioligand binding (ligand: [125I] PDGF); assay type: cell-based; conditions: nih3t3; Not Active = under 50% inhibition at 10 µM
[6] = DRUGMATRIX: Interleukin IL-1 radioligand binding (ligand: [125I] interleukin 1beta); assay type: cell membranes, Membrane; conditions: nih3t3; Not Active = under 50% inhibition at 10 µM

CC[C@@H](CO)NC(=O)[C@@H]1C=C2c3cccc4[nH]cc(c34)C[C@H]2N(C)C1 [METHYLERGONOVINE]
Not Active: IC50 (Adenosine receptor A1) | IC50 [1] | IC50 [2] | Ki [2] | IC50 [3] | IC50 [4] | IC50 [5] | Ki [5] | IC50 [6] | Ki [6]

COc1nc(C)nc(Cl)c1NC1=NCCN1 [MOXONIDINE]
Not Active: IC50 (Adenosine receptor A1) | IC50 [1] | IC50 [2] | Ki [2] | IC50 [3] | IC50 [4] | IC50 [5] | Ki [5] | IC50 [6] | Ki [6]

COc1c(C)c2c(c(O)c1C/C=C(\C)CCC(=O)O)C(=O)OC2 [MYCOPHENOLIC ACID]
Not Active: IC50 (Adenosine receptor A1) | IC50 [1] | IC50 [2] | Ki [2] | IC50 [3] | IC50 [4] | IC50 [5] | Ki [5] | IC50 [6] | Ki [6]

O=c1ncn2nc(Sc3ccc(F)cc3F)ccc2c1-c1c(Cl)cccc1Cl [NEFLAMAPIMOD]
Not Active: IC50 (Adenosine receptor A1) | IC50 [1] | IC50 [2] | Ki [2] | IC50 [3] | IC50 [4] | IC50 [5] | Ki [5] | IC50 [6] | Ki [6]

CO[C@H]1/C=C/O[C@@]2(C)Oc3c(C)c(O)c4c(O)c(c(/C=N/N5CCN(C)CC5)c(O)c4c3C2=O)NC(=O)/C(C)=C\C=C\[C@H](C)[C@H](O)[C@@H](C)[C@@H](O)[C@@H](C)[C@H](OC(C)=O)[C@@H]1C [RIFAMPIN]
Not Active: IC50 (Adenosine receptor A1) | IC50 [1] | IC50 [2] | Ki [2] | IC50 [3] | IC50 [4] | IC50 [5] | Ki [5] | IC50 [6] | Ki [6]

Nc1nc2ccc(OC(F)(F)F)cc2s1 [RILUZOLE]
Not Active: IC50 (Adenosine receptor A1) | IC50 [1] | IC50 [2] | Ki [2] | IC50 [3] | IC50 [4] | IC50 [5] | Ki [5] | IC50 [6] | Ki [6]

C=CCC1(C(C)CCC)C(=O)NC(=O)NC1=O (stereo not given) [SECOBARBITAL]
Not Active: IC50 (Adenosine receptor A1) | IC50 [1] | IC50 [2] | Ki [2] | IC50 [3] | IC50 [4] | IC50 [5] | Ki [5] | IC50 [6] | Ki [6]

C[C@@H]1CN(c2c(F)c(N)c3c(=O)c(C(=O)O)cn(C4CC4)c3c2F)C[C@H](C)N1 [SPARFLOXACIN]
Not Active: IC50 (Adenosine receptor A1) | IC50 [1] | IC50 [2] | Ki [2] | IC50 [3] | IC50 [4] | IC50 [5] | Ki [5] | IC50 [6] | Ki [6]

Cc1noc(NS(=O)(=O)c2ccc(N)cc2)c1C [SULFISOXAZOLE]
Not Active: IC50 (Adenosine receptor A1) | IC50 [1] | IC50 [2] | Ki [2] | IC50 [3] | IC50 [4] | IC50 [5] | Ki [5] | IC50 [6] | Ki [6]

CSc1ccc(/C=C2/C(C)=C(CC(=O)O)c3cc(F)ccc32)cc1 [SULINDAC SULFIDE]
Not Active: IC50 (Adenosine receptor A1) | IC50 [1] | IC50 [2] | Ki [2] | IC50 [3] | IC50 [4] | IC50 [5] | Ki [5] | IC50 [6] | Ki [6]

Nc1c2c(nc3ccccc13)CCCC2 [TACRINE]
Not Active: IC50 (Adenosine receptor A1) | IC50 [1] | IC50 [2] | Ki [2] | IC50 [3] | IC50 [4] | IC50 [5] | Ki [5] | IC50 [6] | Ki [6]

Nc1nc2nc[nH]c2c(=S)[nH]1 [THIOGUANINE]
Not Active: IC50 (Adenosine receptor A1) | IC50 [1] | IC50 [2] | Ki [2] | IC50 [3] | IC50 [4] | IC50 [5] | Ki [5] | IC50 [6] | Ki [6]

Cc1cccc(N(C)C(=S)Oc2ccc3ccccc3c2)c1 [TOLNAFTATE]
Not Active: IC50 (Adenosine receptor A1) | IC50 [1] | IC50 [2] | Ki [2] | IC50 [3] | IC50 [4] | IC50 [5] | Ki [5] | IC50 [6] | Ki [6]
